Legend:
3CL^pro = molecular target: T1, 3CL^pro (Severe acute respiratory syndrome coronavirus 2, UniProt P0DTD1); experiment: FRET-based 3CL^pro enzyme activity assay; format: biochemical, SARS-CoV2
T1 construct: A 3CL^pro (Cat. #78042-1) assay kit (BPS Bioscience, CA, USA) was used; purchased BPS Bioscience 78042-1
Protocol: FIG. 1 is a scheme of the fluorogenic 3CL^pro protease enzymatic assay. The fluorescence of Edans in the C-terminal of the peptide substrate (Dabcyl-[…]-Edans, the cleavage site is in between the amino acids Q and S) is quenched by the Dabcyl in the N-terminus without the 3CL^pro enzymatic cleavage. After the protease is added and cleaves the peptide substrate, the quencher molecule Dabcyl can no longer quench the fluorophore Edans which results in an increase in fluorescence emission at 460 nm. The intensity of this fluorescence is proportional to the protease activity. FRET: fluorescence resonance energy transfer.
3CL^pro inhibition percentage of different test groups is determined by “(Isubstrate+3CLpro−Itest_group)/(Isubstrate+3CLpro−Isubstrate)×100%, where “I” is the observed intensity of blue fluorescence light (at 460 nm); Isubstrate and Isubstrate+3CLpro are supposed to give the lowest and the highest intensity, respectively, where the substrate is a peptide labeled by a quencher and fluorophore at its N- and C-termini (as shown in FIG. 1). Specifically, the fluorescence of Edans in the C-terminal of the peptide (Dabcyl-[…]-Edans; the cleavage site is in between the amino acids Q and S) is quenched by the Dabcyl in the N-terminus in the absence of the 3CL^pro enzymatic cleavage. Norvancomycin (Nv) is the interface blocker here while the FDA drugs boceprevir (Bc) and GC376 (in its clinical trials) are the active-site inhibitors. The results are shown by the average value of two replicates.
The FRET-based assay was designed for 3CL^pro activity assay and explained in FIG. 1. The 3CL^pro enzyme assay was developed in a 96-well black microplate with a total volume of 50 μL. 30 μL of 0.5 ng/μL enzyme in a reaction buffer was added into each well, followed by the addition of 10 μL substrate solution to a final concentration of 40 μM. Enzymatic reaction gave fluorescence whose intensity was measured after incubation for 4 hours at 37° C. with slow shaking in a microtiter plate reading fluorimeter (BioTek Synergy HTX multi-mode reader, VT, US) with Ex=340 nm/Em=460 nm. […]

[1] = test system: SARS-CoV2 hCoV-19/Taiwan/NTU13/2020; experiment: Plaque reduction assay in Vero E6 cells; format: cell-based
Vero E6 cells = experiment: Cytotoxicity assay; format: cell-based
Protocol: (§1) FIGS. 6A and 6B show the cytotoxicity of norvancomycin (NV) and nelfinavir (NF). The percentage of cell survival is determined by obtaining cell viability of Vero E6 cells in the presence of drugs of interest and trace amount of DMSO that help fully dissolve the drug, normalized by Vero E6 cells in the presence of the same concentration of said DMSO, which serves as a control, the cell viability in the absence of the drugs. 50% cytotoxic concentration (CC50) represents the concentration of NV and NF required to reduce cell survival by 50%.
(§2) Cytotoxicity assay was performed using Vero E6 cells described above to determine the cytotoxicity of tested compounds, i.e., norvancomycin and nelfinavir. DMSO, the solvent used to help fully dissolve the drugs of interest, was used as the negative control. The percentage of cell survival and 50% cytotoxic concentration (CC50) were derived.

Cytotoxicity assay = format: cell-based; conditions: African green monkey, Vero E6 cells
Protocol: as §1, §2

Compound	extra 3CL^pro inhibition vs GC376 alone (3CL^pro; 25 μM norvancomycin in combination with 16 nM GC376) [%]	additional 3CL^pro inhibition (3CL^pro; 50 μM norvancomycin in combination with 25 μM boceprevir) [%]	elevation of 3CL^pro inhibition (3CL^pro; co-used with 25 μM boceprevir at molar ratio 1:1)	suppression of SARS-CoV2 replication ([1]; 40 μM norvancomycin) [%]	CC50 (Vero E6 cells) [µM]	suppression of SARS-CoV2 replication ([1]; 0.9 μM nelfinavir) [%]	suppression of SARS-CoV2 replication ([1]; 1.8 μM nelfinavir) [%]	suppression of SARS-CoV2 replication ([1]; 1.8 μM nelfinavir together with 37.5 μM norvancomycin) [%]	suppression of SARS-CoV2 replication ([1]; 3.6 μM nelfinavir) [%]	suppression of SARS-CoV2 replication ([1]; 3.6 μM nelfinavir and 37.5 μM norvancomycin) [%]	CC50 (Cytotoxicity assay) [µM]	cell survival rate (Vero E6 cells; 1.8 μM nelfinavir) [%]	cell survival rate (Vero E6 cells; 3.6 μM nelfinavir) [%]
CC(C)C[C@@H](N)C(=O)N[C@H]1C(=O)N[C@@H](CC(N)=O)C(=O)N[C@H]2C(=O)N[C@H]3C(=O)N[C@H](C(=O)N[C@H](C(=O)O)c4cc(O)cc(O)c4-c4cc3ccc4O)[C@H](O)c3ccc(c(Cl)c3)Oc3cc2cc(c3O[C@@H]2O[C@H](CO)[C@@H](O)[C@H](O)[C@H]2O[C@H]2C[C@](C)(N)[C@H](O)[C@H](C)O2)Oc2ccc(cc2Cl)[C@H]1O [Norvancomycin]	10	17	around 10%	4	> 100								
Cc1c(O)cccc1C(=O)N[C@@H](CSc1ccccc1)[C@H](O)CN1C[C@H]2CCCC[C@H]2C[C@H]1C(=O)NC(C)(C)C [nelfinavir]						41	35	100	100	100	8.26 ± 0.495	84	69
